Measured values from patent US9175045B2, “Peptidomimetic macrocycles” (Aileron Therapeutics, Inc., priority 2008, dated 2015).
Numbered stars: 1 amine (or outer) side, 2 acyl side, 3 side chain; on linkers, the order of the positions; unused ones are H or OH. Bridge positions count the residues as written; N and C are the ends. Square brackets hold non-standard residues; d marks the D form. Peptide text beside a SMILES is read from it. * marks the point of attachment. ξ: configuration not given here. ξαMeNle(6-ylidene) = CC(CCCC=[*:3])(N[*:1])C(=O)[*:2]; S5 = C=CCCC[C@](C)(N)C(=O)O; Nle = CCCC[C@H](N)C(=O)O; Aib = CC(C)(N)C(=O)O; Propionyl = CCC(=O)*

How the values were obtained:
Jurkat cell line = format: cell-based; conditions: for EC50: 24 h
Protocol: Jurkat cell line (Clone E6-1, ATCC catalog #TIB-152) is grown in specific serum-supplemented media (RPMI-1640, Invitrogen catalog #22400) as recommended by ATCC. A day prior to the initiation of the study, cells are split at optimal cell density (2×10^5-5×10^5 cells/ml) to assure actively dividing cells. The next day, cells are washed twice in serum-free Opti-MEM media (Invitrogen, Catalog #51985) and cells are then plated at optimal cell density (10,000 cells/well) in 50 μl Opti-MEM media or Opti-MEM supplemented with 2% or 10% human serum (Bioreclamation, catalog #HMSRM) in 96-well white tissue culture plate (Nunc, catalog #136102).
For serum free experiment, crosslinked polypeptides are diluted from 2 mM stocks (100% DMSO) in sterile water to prepare 400 μM working solutions. The crosslinked polypeptides and controls are diluted 10-fold first and then serially two-fold diluted in Opti-MEM in dosing plates to provide concentrations of between 1.2 and 40 μM. 50 μl of each dilution is then added to the appropriate wells of the test plate to achieve final concentrations of the polypeptides equal to between 0.6 to 20 μM. For studies using Opti-MEM supplemented with human serum (Bioreclamation, catalog #HMSRM), crosslinked polypeptides are diluted from 10 mM stocks (100% DMSO) in sterile water to prepare 2 mM working solutions. The crosslinked polypeptides and controls are diluted 10-fold first and then serially two-fold diluted in Opti-MEM in the presence of 2% or 10% of human serum to provide concentrations of the polypeptides equal to between 6.25 to 200 μM in dosing plates. 50 μl of each dilution is then added to the appropriate wells of the test plate to achieve final concentrations of the polypeptides equal to between 3.125 to 100 μM. Controls included wells without polypeptides containing the same concentration of DMSO as the wells containing the macrocycles, wells containing 0.1% Triton X-100 and wells containing no cells. Plates are incubated for 24 hours at 37° C. in humidified 5% CO2 atmosphere.
At the end of the incubation period, CellTiter-Glo assay is performed according to manufacturer's instructions (Promega, catalog #G7573) and luminescence is measured using Synergy HT Plate reader (BioTek). Luminescence correlates with viability. A reduction in viability reflects the ability of the test compounds to induce programmed cell death via BAX and BAK.

human serum proteins = test: Apparent affinity to human serum proteins (Kd*) by EC50 shift analysis; format: in vitro ADME; conditions: nonlinear regression of EC50 shift with serum, n = 1, P = 700 μM for 100% serum
Source text: The measurement of apparent Kd values for serum protein by EC50 shift analysis provides a simple and rapid means of quantifying the propensity of experimental compounds to bind HSA and other serum proteins. A linear relationship exists between the apparent EC50 in the presence of serum protein (EC′50) and the amount of serum protein added to an in vitro assay. This relationship is defined by the binding affinity of the compound for serum proteins, expressed as Kd*. This term is an experimentally determined, apparent dissociation constant that may result from the cumulative effects of multiple, experimentally indistinguishable, binding events. The form of this relationship is presented here in Eq. 0.3, and its derivation can be found in Copeland et al, Biorg. Med. Chem. Lett. 2004, 14:2309-2312. [formula] A significant proportion of serum protein binding can be ascribed to drug interactions with HSA, due to the very high concentration of this protein in serum (35-50 g/L or 530-758 μM). To calculate the Kd value for these compounds we have assumed that the shift in EC50 upon protein addition can be ascribed fully to the HSA present in the added serum, where P is 700 μM for 100% serum, P is 70 μM for 10% serum, etc. We further made the simplifying assumption that all of the compounds bind HSA with a 1:1 stoichiometry, so that the term n in Eq. (0.3) is fixed at unity. With these parameters in place we calculated the Kd* value for each stapled peptide from the changes in EC50 values with increasing serum (and serum protein) concentrations by nonlinear regression analysis of Eq. 0.3 using Mathematica 4.1 (Wolfram Research, Inc., www.wolfram.com). EC′50 values in whole blood are estimated by setting P in Eq. 0.3 to 700 μM [HSA].

[1] = target: T1, human serum proteins (binding ascribed fully to human serum albumin, HSA) (human, UniProt P02768 25-609); test: cell-based or functional assay
[2] = target: T1, human serum proteins (binding ascribed …); test: apparent Kd* by EC50 shift analysis: Jurkat viability EC50 at 0, 2 and 10% human serum, fit assuming 1:1 binding to HSA

T1 sequence (P02768 25-609 limits assumed): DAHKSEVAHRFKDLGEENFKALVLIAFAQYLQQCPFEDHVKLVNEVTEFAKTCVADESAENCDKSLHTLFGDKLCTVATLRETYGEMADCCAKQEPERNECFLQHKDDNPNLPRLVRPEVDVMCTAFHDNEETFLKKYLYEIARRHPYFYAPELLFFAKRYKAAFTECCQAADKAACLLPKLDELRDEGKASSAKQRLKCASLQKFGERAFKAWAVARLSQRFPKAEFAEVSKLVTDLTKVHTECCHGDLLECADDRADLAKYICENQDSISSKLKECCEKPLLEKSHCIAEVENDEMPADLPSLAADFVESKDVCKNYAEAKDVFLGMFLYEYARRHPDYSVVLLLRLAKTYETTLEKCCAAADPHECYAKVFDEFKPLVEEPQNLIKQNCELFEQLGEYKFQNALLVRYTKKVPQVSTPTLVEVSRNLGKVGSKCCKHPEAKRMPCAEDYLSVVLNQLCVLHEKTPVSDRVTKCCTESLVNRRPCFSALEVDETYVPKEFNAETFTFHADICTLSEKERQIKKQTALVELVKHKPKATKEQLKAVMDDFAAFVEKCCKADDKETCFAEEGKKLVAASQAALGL

Molecule | EC50 (Jurkat cell line) [nM] | Kd (human serum proteins) [nM] | efficacy in serum-free media and in the presence of serum (Jurkat cell line; statement in words) | 2% serum EC50 (Jurkat cell viability, CellTiter-Glo) [1] [nM] | 10% serum EC50 (Jurkat cell viability, CellTiter-Glo) [1] [nM] | Kd [2] [nM]
CCCC[C@H](NC(=O)C1(C)CCCC=CCCCC(C)(NC(=O)[C@H](C)NC(=O)[C@H](CC(C)C)NC(=O)[C@H](Cc2c[nH]cn2)NC(=O)[C@H](CCCNC(=N)N)NC(=O)[C@H](C)NC(=O)[C@@H](NC(=O)[C@H](CC(N)=O)NC(=O)[C@H](CCCNC(=N)N)NC(=O)CC)[C@@H](C)CC)C(=O)N[C@@H](C(C)C)C(=O)NC(C)(C)C(=O)N[C@@H](CC(=O)O)C(=O)N1)C(=O)N[C@@H](CC(=O)O)C(=O)N[C@@H](CCCNC(=N)N)C(=O)N[C@@H](CO)C(=O)N[C@H](C(N)=O)[C@@H](C)CC (stereo partly drawn) [Compound 5, Pr-RNIARHLA$VAibD$NleDRSI-NH2] (Propionyl-RNIARHLA[ξαMeNle(6-ylidene)]V[Aib]D[ξαMeNle(6-ylidene)][Nle]DRSI-NH2; staple 9-13) | 1600 | 200 | – | – | – | –
CCCC[C@H](NC(=O)C1(C)CCCC=CCCCC(C)(NC(=O)C(C)(C)NC(=O)[C@H](CC(C)C)NC(=O)[C@H](Cc2c[nH]cn2)NC(=O)[C@H](CCCNC(=N)N)NC(=O)[C@H](C)NC(=O)[C@@H](NC(=O)[C@H](CC(N)=O)NC(=O)[C@H](CCCNC(=N)N)NC(=O)CC)[C@@H](C)CC)C(=O)N[C@@H](C(C)C)C(=O)NC(C)(C)C(=O)N[C@@H](CC(=O)O)C(=O)N1)C(=O)N[C@@H](CC(=O)O)C(=O)N[C@@H](CCCNC(=N)N)C(=O)N[C@@H](CO)C(=O)N[C@H](C(N)=O)[C@@H](C)CC (stereo partly drawn) [Compound 6, Pr-RNIARHLAib$VAibD$NleDRSI-NH2] (Propionyl-RNIARHL[Aib][ξαMeNle(6-ylidene)]V[Aib]D[ξαMeNle(6-ylidene)][Nle]DRSI-NH2; staple 9-13) | 1000 | 400 | – | – | – | –
CCC(=O)N[C@@H](CCCNC(=N)N)C(=O)N[C@@H](CC(N)=O)C(=O)N[C@H](C(=O)N[C@@H](C)C(=O)N[C@@H](CCCNC(=N)N)C(=O)N[C@@H](Cc1c[nH]cn1)C(=O)N[C@@H](CC(C)C)C(=O)N[C@@H](C)C(=O)NC1(C)CCCC=CCCCC(C)(C(=O)N[C@@H](Cc2ccccc2)C(=O)N[C@@H](C)C(=O)N[C@@H](CCCNC(=N)N)C(=O)N[C@@H](CO)C(=O)N[C@H](C(N)=O)[C@@H](C)CC)NC(=O)[C@H](CC(=O)O)NC(=O)C(C)(C)NC(=O)[C@H](C(C)C)NC1=O)[C@@H](C)CC (stereo partly drawn) [Compound 7, Pr-RNIARHLA$VAibD$FARSI-NH2] (Propionyl-RNIARHLA[ξαMeNle(6-ylidene)]V[Aib]D[ξαMeNle(6-ylidene)]FARSI-NH2; staple 9-13) | 2200 | 1100 | – | – | – | –
CCCC[C@H](NC(=O)C1(C)CCCC=CCCCC(C)(NC(=O)[C@H](C)NC(=O)[C@H](CC(C)C)NC(=O)[C@H](Cc2c[nH]cn2)NC(=O)[C@H](CCCNC(=N)N)NC(=O)[C@H](C)NC(=O)[C@@H](NC(=O)[C@H](CC(N)=O)NC(=O)[C@H](CCCNC(=N)N)NC(=O)CC)[C@@H](C)CC)C(=O)N[C@@H](C(C)C)C(=O)NCC(=O)N[C@@H](CC(=O)O)C(=O)N1)C(=O)NC(C)(C)C(=O)N[C@@H](CCCNC(=N)N)C(=O)N[C@@H](CO)C(=O)N[C@H](C(N)=O)[C@@H](C)CC (stereo partly drawn) [Compound 8, Pr-RNIARHLA$VGD$NleAibRSI-NH2] (Propionyl-RNIARHLA[ξαMeNle(6-ylidene)]VGD[ξαMeNle(6-ylidene)][Nle][Aib]RSI-NH2; staple 9-13) | 2400 | 2300 | – | – | – | –
CC[C@H](C)[C@H](NC(=O)[C@H](Cc1c[nH]c2ccccc12)NC(=O)[C@H](CCCNC(=N)N)NC(C)=O)C(=O)N[C@@H](C)C(=O)N[C@@H](CCC(N)=O)C(=O)N[C@@H](C)C(=O)N[C@@H](CC(C)C)C(=O)N[C@@H](CCCNC(=N)N)C(=O)NC1(C)CCCC=CCCCC(C)(C(=O)N[C@@H](Cc2ccccc2)C(=O)N[C@@H](CC(N)=O)C(=O)N[C@@H](C)C(=O)N[C@@H](Cc2ccccc2)C(=O)N[C@@H](Cc2ccc(O)cc2)C(=O)N[C@@H](C)C(=O)N[C@@H](CCCNC(=N)N)C(=O)N[C@@H](CCCNC(=N)N)C(N)=O)NC(=O)[C@H](CC(=O)O)NC(=O)CNC(=O)[C@H]([C@@H](C)CC)NC1=O (stereo partly drawn) [Compound 14, Ac-RWIAQALR$1GD$FNAFYARR-NH2] | 400 | 2300 | – | – | – | –
CC[C@H](C)[C@H](NC(=O)[C@H](CCCNC(=N)N)NC(=O)[C@H](CCCNC(=N)N)NC(=O)[C@H](CCCNC(=N)N)NC(=O)[C@H](CC(C)C)NC(=O)[C@H](CCCNC(=N)N)NC(=O)[C@H](CCC(=O)O)NC(C)=O)C(=O)NC1(C)CCCC=CCCCC(C)(C(=O)N[C@@H](Cc2c[nH]cn2)C(=O)N[C@@H](Cc2c[nH]cn2)C(=O)N[C@@H](CO)C(=O)N[C@H](C(N)=O)[C@@H](C)O)NC(=O)[C@H](CCCNC(=N)N)NC(=O)[C@H](CS)NC(=O)[C@H](CC(C)C)NC1=O (stereo partly drawn) [Compound 17, Ac-ERLRRRI$LCR$HHST-NH2] (Ac-ERLRRRI[ξαMeNle(6-ylidene)]LCR[ξαMeNle(6-ylidene)]HHST-NH2; staple 8-12) | 12000 | < 100 | high efficacy in serum-free media, which is substantially reduced in the presence of serum | – | – | –
CC[C@H](C)[C@H](NC(=O)[C@H](CCCNC(=N)N)NC(=O)[C@H](CCCNC(=N)N)NC(=O)[C@H](CCCNC(=N)N)NC(=O)[C@H](CC(C)C)NC(=O)[C@H](CCCNC(=N)N)NC(=O)[C@H](CCC(=O)O)NC(C)=O)C(=O)NC1(C)CCCC=CCCCC(C)(C(=O)N[C@@H](Cc2c[nH]cn2)C(=O)N[C@@H](Cc2c[nH]cn2)C(=O)N[C@@H](CO)C(=O)N[C@H](C(N)=O)[C@@H](C)O)NC(=O)[C@H](CCCNC(=N)N)NC(=O)[C@H](C)NC(=O)[C@H](CC(C)C)NC1=O (stereo partly drawn) [Compound 18, Ac-ERLRRRI$LAR$HHST-NH2] (Ac-ERLRRRI[ξαMeNle(6-ylidene)]LAR[ξαMeNle(6-ylidene)]HHST-NH2; staple 8-12) | > 20000 | < 100 | – | – | – | –
Propionyl-RNIARHLA[S5]V[Aib]D[S5]FARSI-NH2 (staple 9-13) [Compound 7 (crosslinked polypeptide derived from human BID BH3)] | – | – | – | 12400 | 48200 | 1100
Propionyl-RNIARHLA[S5]VGD[S5][Nle][Aib]RSI-NH2 (staple 9-13) [Compound 8 (crosslinked polypeptide derived from human BID BH3)] | – | – | – | 10500 | 37700 | 2300
Propionyl-RNIARHL[Aib][S5]V[Aib]D[S5][Nle]DRSI-NH2 (staple 9-13) [Compound 6 (crosslinked polypeptide derived from human BID BH3)] | – | – | – | 10100 | 49700 | 400
Propionyl-RNIARHLA[S5]V[Aib]D[S5][Nle]DRSI-NH2 (staple 9-13) [Compound 5 (crosslinked polypeptide derived from human BID BH3)] | – | – | – | 16700 | 63000 | 200
Ac-DIIRNIARHLA[S5]VGD[S5][Nle]DRSI-NH2 (staple 12-16) [Compound 1 (crosslinked polypeptide derived from human BID BH3)] | – | – | – | 73900 | > 100000 | < 100
